Source: patent publication US4067990A, “Process for the preparation of insecticidal compositions based on carbamic esters” (Airwick Industries, Inc., priority 1971, dated 1978)
Where two headings read alike, the source gives them in different places.

Assays:
[1] = Dissolution capacity of diluents/solvents for Dioxacarb and Arprocarb; type: physicochemical
[2] = at 25° C
[3] = at 20° C, solute Arprocarb, footnotes

Compound	Dissolution capacity for DIOXACARB ([1]; at 20° C, solute Dioxacarb) [weight %]	Vapour pressure [2]	Dissolving capacity for Dioxacarb ([1]; at 20° C, solute Dioxacarb)	further results
CCOC(=O)CC [Ethylpropionate]	9	37 Torr		
CCCCCCCCCCCCCC(=O)OC(C)C [Isopropylmyristate]	0.3		0.3%	Dissolution capacity for ARPROCARB ([1]; at 20° C, solute Arprocarb): 1.3 weight %; Dissolving capacity for Arprocarb [1, 3]: 1.3%; Vapour pressure ([2]; listed as Isopropyl myristate): ca. 0.001 Torr; Vapour pressure ([2]; listed as isopropylmyristate): < 0.005 Torr
CCCCCCCC(=O)O [Octanoic acid]	1.5	0.002 Torr		
CCCC(=O)OCC [Ethylbutyrate]	7	17 Torr		
CCCOC(C)=O [Propylacetate]	6	33 Torr		
CCCCOC(C)=O [Butylacetate]		11 Torr		Dissolution capacity for DIOXACARB [1]: 5 weight %
COC(C)=O [Methylacetate]	19.6	216 Torr	19.6%	Dissolution capacity for ARPROCARB ([1]; at 20° C, solute Arprocarb): 41 weight %; Dissolving capacity for Arprocarb [1, 3]: 41%
CCCCCl [1-Chlorobutane]	2	102 Torr	2%	
CO [Methanol]	20.5	127 Torr	20.5%	
CCC(=O)OC [Methylpropionate]	12	83 Torr		
CCC(C)=O [Methylethylketone]	5	20 Torr		
CC#N [Acetonitrile]	35.5	86 Torr	35.5%	
CCCCCCCC/C=C/CCCCCCCC(=O)CCCCCCC/C=C/CCCCCCCC [Oleone]	0.2	< 10^-6 Torr		
CCCCCCCCOC(=O)c1ccccc1C(=O)OCCCCCCCC [Dioctylphthalate]	0.1	< 0.0001 Torr	0.1%	Dissolution capacity for ARPROCARB ([1]; at 20° C, solute Arprocarb): 2.6 weight %; Dissolving capacity for Arprocarb [1, 3]: 2.6%; Vapour pressure ([2]; listed as Dioctyl phthalate): below 0.0001 Torr; Vapour pressure ([2]; listed as dioctylphthalate): < 0.005 Torr
CCC(C)OC(C)=O (stereo not shown) [sec. Butylacetate]	6	26 Torr		
CCCCCCCCCCCCC1CC(=O)OC1=O (stereo not shown) [2-Dodecylsuccinic-acid anhydride]	2.9	0.007 Torr		
ClC=C(Cl)Cl [Trichloroethylene]	2	74 Torr	approximately 2%	
OCC(O)CO [Glycerol]	0.6	< 0.0001 Torr		
C[N+](=O)[O-] [Nitromethane]	27.5	34 Torr	27.5%	
CCCCC [Pentane]		513 Torr		Dissolution capacity for ARPROCARB [1]: 0.3 weight %; Dissolution capacity for DIOXACARB [1]: 0.2 weight %; Dissolving capacity for Arprocarb [1]: 0.3%; Dissolving capacity for Dioxacarb [1]: approximately 0.2%
CC(C)=O [Acetone]		225 Torr		Dissolution capacity for DIOXACARB [1]: 28 weight %; Dissolving capacity for Dioxacarb [1]: 28%
CCO [Ethanol]				Dissolution capacity for ARPROCARB [1]: 0.3 weight %; Dissolution capacity for DIOXACARB [1]: 0.2 weight %; Dissolving capacity for Arprocarb [1]: 40%; Dissolving capacity for Dioxacarb [1]: 8%
CCCCC(CC)COC(=O)CCCCC(=O)OCC(CC)CCCC (stereo not shown) [Di(2-ethylhexyl)adipate)]	2.0	0.007 Torr		Dissolution capacity for ARPROCARB ([1]; at 20° C, solute Arprocarb): 2.8 weight %; Dissolving capacity for Arprocarb [1, 3]: 2.8%; Vapour pressure ([2]; listed as Di(2-ethyl-hexyl) adipate): ~0.007 Torr; Vapour pressure ([2]; listed as di(ethyl-2-hexyl) adipate): < 0.005 Torr
CCCCCCCCCCCCO [Composition 1-Dodecanol, 1-Dodecanol]	0.8	0.001 Torr		
ClC(Cl)Cl [Trichloromethane]		194 Torr		Dissolution capacity for DIOXACARB [1]: 34 weight %; Dissolving capacity for Dioxacarb [1]: 34%; Vapour pressure ([2]; listed as Chloroform): 194 Torr

Compound	Dissolution capacity for DIOXACARB ([1]; at 20° C, solute Dioxacarb) [weight %]	Vapour pressure [2]	Dissolving capacity for Dioxacarb ([1]; at 20° C, solute Dioxacarb)	further results
CCCC(=O)OC [Methylbutyrate]	8	34 Torr		
CC(C)O [Isopropanol]	4.5	44 Torr	4.5%	Dissolution capacity for ARPROCARB ([1]; at 20° C, solute Arprocarb): 30 weight %; Dissolving capacity for Arprocarb [1, 3]: approximately 30%
CC(=O)OC(C)C [Isopropylacetate]	6	55 Torr		
CC(=O)OCC(C)C [Isobutylacetate]	6	17 Torr		
COCCOC(C)=O [2-Methoxyethyl acetate]	20	5 Torr		Dissolution capacity for ARPROCARB ([1]; at 20° C, solute Arprocarb): 33 weight %
C1CCOC1 [Tetrahydrofuran]	33.5	176 Torr	33.5%	Dissolution capacity for ARPROCARB ([1]; at 20° C, solute Arprocarb): 50 weight %; Dissolving capacity for Arprocarb [1, 3]: approximately 50%
CCOC(C)=O [Ethylacetate]	10.5	97 Torr	10.5%	
CCCCCCCC/C=C\CCCCCCCC(=O)O [Oleic acid]	1.2	0.0002 Torr		
ter. Dodecanethiol	0.2	0.008 Torr		
ClCCl [Dichloromethane]		420 Torr		Dissolution capacity for ARPROCARB [1]: 48 weight %; Dissolution capacity for DIOXACARB [1]: 45 weight %; Dissolving capacity for Arprocarb [1]: approximately 48%; Dissolving capacity for Dioxacarb [1]: 45%
CCCCCCCCCCCCCCBr [1-Bromotetradecane]	0.1	< 0.001 Torr		Vapour pressure ([2]; listed as 1-bromotetradecane): < 0.005 Torr
CCC(N)(CO)CO [2-Amino-2-ethyl-1,3-propanediol]	2.4	0.01 Torr		
CCCCCCCCCCCCCCCC [Hexadecane]	0	0.003 Torr		Vapour pressure ([2]; listed as hexadecane): < 0.005 Torr
CC(Cl)(Cl)Cl [1.1.1-Trichloro-ethane]	2.3	121 Torr	2.3%	
CCCCCCCCCCCCCCCCCl [1-Chlorohexadecane]	0.7	< 0.0001 Torr	0.7%	Dissolving capacity for Arprocarb of the 1:1 mixture with 5-(3,6,9-trioxa-un-decyl-2-oxy)-1,3-benzodioxole ([1]; at 20° C, 1:1 mixture with T.U.O.B.): 2%; Dissolution capacity for ARPROCARB ([1]; at 20° C, solute Arprocarb): 0.4 weight %; Dissolving capacity for Arprocarb [1, 3]: 0.4%; Vapour pressure ([2]; listed as 1-chlorohexadecane): < 0.005 Torr; Vapour pressure ([2]; listed as Chlorohexadecane): below 0.0001 Torr
COCCO [2-Methoxyethanol]		8.6 Torr		Dissolution capacity for DIOXACARB [1]: 15 weight %; Dissolving capacity for Dioxacarb [1]: about 15%
Tetrachlorodiphenyle	1.3	< 0.001 Torr	1.3%	Vapour pressure ([2]; listed as Tetrachlorodiphenyl): below 0.001 Torr; Vapour pressure ([2]; listed as tetrachlorodiphenyl): < 0.005 Torr
C1COCCO1 [Dioxan]	23	35 Torr	23%	
CCCCCCC [Heptane]		38.5 Torr	about 0.2%	Dissolution capacity for ARPROCARB ([1]; at 20° C, solute Arprocarb): 0.3 weight %; Dissolving capacity for Arprocarb [1, 3]: 0.3%
CCCCCO [Amylalcohol]	2.6	2.5 Torr	2.6%	
c1ccccc1 [Benzene]				Dissolution capacity for DIOXACARB [1]: 3 weight %; Dissolving capacity for Dioxacarb [1]: 3%
CCOCCOCCOC(C)Oc1ccc2c(c1)OCO2 (stereo not shown) [T.U.O.B., 5-(3,6,9-trioxa-undecyl-2-oxy)-1,3-benzodioxole]	2.9	< 0.005 Torr	2.9%	Dissolution capacity for ARPROCARB ([1]; at 20° C, solute Arprocarb): 5.0 weight %; Dissolving capacity for Arprocarb [1, 3]: 5%
CCCCCC [Hexane]	0.2	151 Torr	approximately 0.2%	Dissolution capacity for ARPROCARB ([1]; at 20° C, solute Arprocarb): 0.3 weight %; Dissolving capacity for Arprocarb [1, 3]: 0.3%
CCCCOC(=O)c1ccccc1C(=O)OCCCC [Dibutylphthalate]	2.7	< 0.0001 Torr	2.7%	Vapour pressure ([2]; listed as Dibutyl phthalate): ca. 0.0001 Torr; Vapour pressure ([2]; listed as dibutylphthalate): < 0.005 Torr
CCCCOCCOCCOCCCC [5,8,11-Trioxapentadecane, 5,8,11-Trioxapenta-decane]	3.2	0.002 Torr		
